Measurements from patent publication US20240368209A1, “GEMCITABINE ANTICANCER DERIVATIVE AND ANTICANCER PHARMACEUTICAL USE” (ASCENTAWITS PHARMACEUTICALS, LTD., priority 2021, published 2024).

What was measured:
[1] = Maximal tolerance dose (MTD) test; format: in vivo; details: mice
Description: According to the research scheme in Table 14, mice were grouped and administered at the concentrations and dosage levels shown in Table 14. On the 1st to 5th day and the 14th to 19th day, intraperitoneal injection of a solvent control or compound H11 at different dosage levels was performed, with a dose volume of 10 mL/kg. Animals in Groups 1, 3, and 4 were put to death and autopsied on the 22nd day, and animals in Group 2 were put to death and autopsied on the 16th day.
The evaluated parameters included cage-side observation, detailed clinical observation, and post-administration observation (approximately 1-2 hours after dosing), body weight and weight change, food intake, and gross pathology.

[2] = Plasma stability in human plasma; format: in vitro ADME
Description: The final concentration of organic solvents was 0.5%. The test was conducted in duplicate. • C.
Samples were analyzed with LC-MS/MS. All calculations were conducted using Microsoft Excel.

[3] = Metabolic stability in mouse liver microsomes; format: in vitro ADME
Description: (§1) Main solutions were prepared according to Table 9 below:
(§2) (II) Two Separate Experiments were Performed • a) With cofactor (NADPH): 25 μL of 10 mM NADPH was added to the culture broth. The final concentration of liver microsomes was 0.5 mg/mL, and the final concentration of NADPH was 1 mM. • b) Without cofactor (NADPH): 25 μL of 100 mM phosphate buffer was added. The final concentration of liver microsomes was 0.5 mg/mL. The mixture was preheated at 37° C. for 10 minutes. (III) 25 μL of […] control compound or test compound solution was added to start the reaction. […] The final concentrations of the test compound and control compound were both 1 μM. The culture broth was cultured in water at 37° C. (IV) Aliquots of 30 μL were collected from the reaction solution at 0.5, 5, 15, 30, and 60 minutes, respectively. 5 volumes of cold acetonitrile and IS (internal standard, containing 100 nM of alprazolam, 200 nM of caffeine, and 100 nM of tolylbutanamide) were added to stop the reaction. […] 100 μL of supernatant was taken and mixed with 100 μL of ultrapure water, equally divided and analyzed with LC-MS/MS.
(§3) All calculations were conducted using Microsoft Excel. The peak area was determined from the extracted ion chromatogram.
(§4) [formula] [formula] [formula] • wherein, QH is the hepatic blood flow (mL/min/kg) in Table 10, and fub is the fraction of drug unbound in plasma, and assumed as 1.

[4] = Metabolic stability in rat liver microsomes; format: in vitro ADME
Description: as §1, §2, §3, §4

[5] = Metabolic stability in monkey liver microsomes; format: in vitro ADME
Description: as §1, §2, §3, §4

[6] = Metabolic stability in human liver microsomes; format: in vitro ADME
Description: as §1, §2, §3, §4

[7] = read-out: In vitro half-life t1/2
[8] = read-out: In vitro intrinsic clearance CLint

CC(C)NP(=O)(OCc1ccc([N+](=O)[O-])c(Oc2ccc(-c3ccc(F)cc3)c(F)c2)c1)OCC1OC(C2N=CC(N)=NC2=O)C(F)(F)C1O (centres unmarked) [Compound H11]
Clinical symptoms ([1]; 80, 160, 320 mg/kg/day i.p.): No abnormal compound-related clinical manifestation was observed | Impact on animal weight and food intake ([1]; 80, 160, 320 mg/kg/day i.p.): No abnormal compound-related change in body weight or food intake was observed | Mortality of animals ([1]; 80, 160, 320 mg/kg/day i.p., two rounds of 5 days): all experimental animals survived until the planned autopsy | dose at which enlargement of the spleen was visible (pathological examination) ([1]; i.p.): ≥ 160 mg/kg | dose group with change to white in the renal capsule (pathological examination) ([1]; i.p.): 320 mg/kg | maximal tolerance dose ([1]; intraperitoneal injection once a day for 5 consecutive days): 320 mg/kg | t1/2 (min) [2]: ∞ | Remaining percentage (%) ([2]; 0 min, 5 μM, 37° C.): 100.00% | plasma stability (in words) ([2]; 37° C., at least 2 hours): stable and has no significant metabolism | Remaining percentage (%) ([2]; 15 min): 95.74% | Remaining percentage (%) ([2]; 30 min): 94.17% | Remaining percentage (%) ([2]; 60 min): 102.77% | Remaining percentage (%) ([2]; 120 min): 99.46% | Hepatic Extraction Ratio (ER) [3]: 0.73 | Predicted Hepatic CLH [3]: 65.90 mL/min/kg | clearance and stability in liver microsomes (in words) [3]: medium clearances and certain stability | Remaining percentage (%) ([3]; NADPH added, 0.5 minutes, 1 μM): 100.00% | Remaining percentage (%) ([3]; NADPH added, 5 minutes): 85.55% | Remaining percentage (%) ([3]; NADPH added, 15 minutes): 55.03% | Remaining percentage (%) ([3]; NADPH added, 30 minutes): 36.05% | Remaining percentage (%) ([3]; NADPH added, 60 minutes): 16.85% | Remaining percentage (%) ([3]; NADPH not added, 0.5 minutes): 100.00% | Remaining percentage (%) ([3]; NADPH not added, 60 minutes): 93.32% | half-life at 1 μM [3, 7]: 23.3 min | microsomal CLint at 1 μM [3, 8]: 59.5 µL/min/mg | CLint scaled at 1 μM ([3]; read-out: Scale-up CLint): 246 mL/min/kg | Hepatic Extraction Ratio (ER) [4]: 0.71 | Predicted Hepatic CLH [4]: 48.43 mL/min/kg | clearance and stability in liver microsomes (in words) [4]: medium clearances and certain stability | Remaining percentage (%) ([4]; NADPH added, 0.5 minutes, 1 μM): 100.00% | Remaining percentage (%) ([4]; NADPH added, 5 minutes): 85.67% | Remaining percentage (%) ([4]; NADPH added, 15 minutes): 56.17% | Remaining percentage (%) ([4]; NADPH added, 30 minutes): 29.55% | Remaining percentage (%) ([4]; NADPH added, 60 minutes): 13.20% | Remaining percentage (%) ([4]; NADPH not added, 0.5 minutes): 100.00% | Remaining percentage (%) ([4]; NADPH not added, 60 minutes): 103.20% | half-life at 1 μM [4, 7]: 20.1 min | microsomal CLint at 1 μM [4, 8]: 69 µL/min/mg | CLint scaled at 1 μM ([4]; read-out: Scale-up CLint): 168 mL/min/kg | Hepatic Extraction Ratio (ER) [5]: 0.88 | Predicted Hepatic CLH [5]: 38.81 mL/min/kg | clearance and stability in liver microsomes (in words) [5]: high clearance and poor stability | Remaining percentage (%) ([5]; NADPH added, 0.5 minutes, 1 μM): 100.00% | Remaining percentage (%) ([5]; NADPH added, 5 minutes): 46.01% | Remaining percentage (%) ([5]; NADPH added, 15 minutes): 13.27% | Remaining percentage (%) ([5]; NADPH added, 30 minutes): 0.59% | Remaining percentage (%) ([5]; NADPH added, 60 minutes): 0.09% | Remaining percentage (%) ([5]; NADPH not added, 0.5 minutes): 100.00% | Remaining percentage (%) ([5]; NADPH not added, 60 minutes): 105.87% | half-life at 1 μM ([5]; monkey, read-out: In vitro half-life t1/2): 5.06 min | microsomal CLint at 1 μM ([5]; monkey, read-out: In vitro intrinsic clearance CLint): 275 µL/min/mg | CLint scaled at 1 μM ([5]; monkey, read-out: Scale-up CLint): 330 mL/min/kg | Hepatic Extraction Ratio (ER) [6]: 0.69 | Predicted Hepatic CLH [6]: 14.41 mL/min/kg | clearance and stability in liver microsomes (in words) [6]: medium clearances and certain stability | Remaining percentage (%) ([6]; NADPH added, 0.5 minutes, 1 μM): 100.00% | Remaining percentage (%) ([6]; NADPH added, 5 minutes): 86.00% | Remaining percentage (%) ([6]; NADPH added, 15 minutes): 63.82% | Remaining percentage (%) ([6]; NADPH added, 30 minutes): 43.87% | Remaining percentage (%) ([6]; NADPH added, 60 minutes): 26.14% | Remaining percentage (%) ([6]; NADPH not added, 0.5 minutes): 100.00% | Remaining percentage (%) ([6]; NADPH not added, 60 minutes): 100.86% | half-life at 1 μM [6, 7]: 31 min | microsomal CLint at 1 μM [6, 8]: 44.7 µL/min/mg | CLint scaled at 1 μM ([6]; read-out: Scale-up CLint): 46 mL/min/kg
